Activity calls are given as the source filed them. No cut-off for these calls is given here.
Key:
[1] = test system: LoVo; test: Induction of apoptosis in human LoVo cells assessed as decrease in Bcl-2 levels at 20 to 80 nM measured after 24 hrs by Western blot assay; type: functional, cell-based; conditions: dose 20-80 nM
[2] = test system: SGC-7901; test: Antiproliferative activity against human SGC-7901 cells assessed as inhibition of cell proliferation measured after 24 hrs by MTT assay; type: functional, cell-based; conditions: SGC-7901, 24 h
[3] = Cytotoxicity against human L02 cells assessed as reduction in cell viability measured after 24 hrs by MTT assay; type: cell-based
[4] = test system: LoVo; test: Inhibition of cell migration in human LoVo cells at 20 to 80 nM measured after 24 hrs by wound healing assay; type: functional, cell-based; conditions: dose 20-80 nM
[5] = Cytotoxicity against human HPDE6c7 cells assessed as reduction in cell viability measured after 24 hrs by MTT assay; type: functional
[6] = test system: LoVo; test: Induction of apoptosis in human LoVo cells assessed as early apoptotic cells at 80 nM measured after 24 hrs by Annexin V/PI staining based flow cytometry method (reference value: 1.6%); type: functional
[7] = test system: HepG2; test: Antiproliferative activity against human HepG2 cells assessed as inhibition of cell proliferation measured after 24 hrs by MTT assay; type: functional, cell-based; conditions: HepG2, 24 h
[8] = Cytotoxicity against human MRC5 cells assessed as reduction in cell viability measured after 24 hrs by MTT assay; type: cell-based
[9] = test system: LoVo; test: Induction of apoptosis in human LoVo cells assessed as viable cells at 40 nM measured after 24 hrs by Annexin V/PI staining based flow cytometry method (reference value: 93.5%); type: functional; conditions: read-out: Activity
[10] = test system: SW-620; test: Induction of apoptosis in human SW-620 cells assessed as decrease in Bcl-2 levels at 20 to 80 nM measured after 24 hrs by Western blot assay; type: functional, cell-based; conditions: dose 20-80 nM
[11] = test system: OVCAR-3; test: Antiproliferative activity against human OVCAR-3 cells assessed as inhibition of cell proliferation measured after 24 hrs by MTT assay; type: functional, cell-based; conditions: OVCAR-3, 24 h
[12] = test system: LoVo; test: Induction of apoptosis in human LoVo cells assessed as viable cells at 80 nM measured after 24 hrs by Annexin V/PI staining based flow cytometry method (reference value: 93.5%); type: functional; conditions: read-out: Activity
[13] = test system: LoVo; test: Induction of apoptosis in human LoVo cells assessed as increase in cleaved caspase-3 levels at 20 to 80 nM measured after 24 hrs by Western blot assay; type: functional, cell-based; conditions: dose 20-80 nM
[14] = test system: LoVo; test: Antiproliferative activity against human LoVo cells assessed as inhibition of cell proliferation measured after 24 hrs by MTT assay; type: functional, cell-based
[15] = test system: LoVo; test: Induction of apoptosis in human LoVo cells assessed as early apoptotic cells at 20 nM measured after 24 hrs by Annexin V/PI staining based flow cytometry method (reference value: 1.6%); type: functional
[16] = test system: SW-620; test: Induction of apoptosis in human SW-620 cells assessed as late apoptotic cells at 80 nM measured after 24 hrs by Annexin V/PI staining based flow cytometry method (reference value: 1.3%); type: functional
[17] = test system: SW-620; test: Antitumour activity against human SW-620 cells xenografted in Balb/c mouse assessed as inhibition of tumour growth at 5 mg/kg, ip measured after 21 days; type: functional; conditions: SW-620, ip, 504 h, time 21 day, read-out: TGI
[18] = test system: LoVo; test: Induction of apoptosis in human LoVo cells assessed as increase in Bax levels at 20 to 80 nM measured after 24 hrs by Western blot assay; type: functional, cell-based; conditions: dose 20-80 nM
[19] = test system: LoVo; test: Cell cycle arrest in human LoVo cells assessed as decrease of cells in G2/M phase at 20 to 80 nM measured after 24 hrs by PI staining based flow cytometry method; type: functional; conditions: dose 20-80 nM
[20] = test system: SW-620; test: Antitumour activity against human SW-620 cells xenografted in Balb/c mouse assessed as increase in cleaved-caspase 3 expression in tumour at 5 mg/kg, ip measured after 21 days immunochemical staining method; type: functional, organism-based; conditions: time 21.0 day
[21] = test system: A549; test: Antiproliferative activity against human A549 cells assessed as inhibition of cell proliferation measured after 24 hrs by MTT assay; type: functional, cell-based; conditions: A549, 24 h
[22] = test system: LoVo; test: Induction of apoptosis in human LoVo cells assessed as viable cells at 20 nM measured after 24 hrs by Annexin V/PI staining based flow cytometry method (reference value: 93.5%); type: functional; conditions: read-out: Activity
[23] = test system: SW-620; test: Induction of apoptosis in human SW-620 cells assessed as increase in cleaved caspase-3 levels at 20 to 80 nM measured after 24 hrs by Western blot assay; type: functional, cell-based; conditions: dose 20-80 nM
[24] = test system: LoVo; test: Cell cycle arrest in human LoVo cells assessed as accumulation of cells in G0/G1 phase at 20 to 80 nM measured after 24 hrs by PI staining based flow cytometry method; type: functional; conditions: dose 20-80 nM
[25] = test system: LoVo; test: Induction of apoptosis in human LoVo cells assessed as necrotic cells at 80 nM measured after 24 hrs by Annexin V/PI staining based flow cytometry method (reference value: 1.3%); type: functional
[26] = test system: SW-620; test: Inhibition of cell migration in human SW-620 cells at 20 to 80 nM measured after 24 hrs by wound healing assay; type: functional, cell-based; conditions: dose 20-80 nM
[27] = test system: LoVo; test: Induction of apoptosis in human LoVo cells assessed as early apoptotic cells at 40 nM measured after 24 hrs by Annexin V/PI staining based flow cytometry method (reference value: 1.6%); type: functional
[28] = test system: SW-620; test: Induction of apoptosis in human SW-620 cells assessed as necrotic cells at 80 nM measured after 24 hrs by Annexin V/PI staining based flow cytometry method (reference value: 3%); type: functional
[29] = test system: LoVo; test: Induction of apoptosis in human LoVo cells assessed as late apoptotic cells at 40 nM measured after 24 hrs by Annexin V/PI staining based flow cytometry method (reference value: 1.6%); type: functional
[30] = test system: SW-620; test: Cell cycle arrest in human SW-620 cells assessed as decrease of cells in G2/M phase at 20 to 80 nM measured after 24 hrs by PI staining based flow cytometry method; type: functional; conditions: dose 20-80 nM
[31] = test system: SW-620; test: Cell cycle arrest in human SW-620 cells assessed as accumulation of cells in G0/G1 phase at 20 to 80 nM measured after 24 hrs by PI staining based flow cytometry method; type: functional; conditions: dose 20-80 nM
[32] = Toxicity in Balb/c mouse xenografted with human SW-620 cells assessed as changes in body weight at 5 mg/kg, ip measured after 21 days; type: organism-based; conditions: in vivo, 504 h, time 21 day
[33] = test system: LoVo; test: Induction of apoptosis in human LoVo cells assessed as necrotic cells at 40 nM measured after 24 hrs by Annexin V/PI staining based flow cytometry method (reference value: 1.3%); type: functional
[34] = test system: SW-620; test: Induction of apoptosis in human SW-620 cells assessed as late apoptotic cells at 20 nM measured after 24 hrs by Annexin V/PI staining based flow cytometry method (reference value: 1.3%); type: functional
[35] = test system: SW-620; test: Induction of apoptosis in human SW-620 cells assessed as viable cells at 80 nM measured after 24 hrs by Annexin V/PI staining based flow cytometry method (reference value: 94%); type: functional; conditions: read-out: Activity
[36] = test system: SW-620; test: Induction of apoptosis in human SW-620 cells assessed as early apoptotic cells at 80 nM measured after 24 hrs by Annexin V/PI staining based flow cytometry method (reference value: 1.7%); type: functional
[37] = test system: LoVo; test: Induction of apoptosis in human LoVo cells assessed as late apoptotic cells at 80 nM measured after 24 hrs by Annexin V/PI staining based flow cytometry method (reference value: 1.6%); type: functional

CC1(C)[C@H]2CC[C@]1(C)N(Cc1cn(-c3cccc(Br)c3)nn1)C(=O)C2
Activity [1]: Active
IC50 [2]: 120 nM
CC50 at 24 h [3]: 10500 nM
inhibition [4]: Dose-Dependent Effect
CC50 [5]: 13800 nM
Activity [6]: 7.4%
IC50 [7]: 20 nM
CC50 at 24 h [8]: 38800 nM
viability at 0.04 µM [9]: 89.8%
Activity [10]: Active
IC50 [11]: 30 nM
viability at 0.08 µM [12]: 61.7%
Activity [13]: Active
IC50 [14]: 30 nM
Activity [15]: 3%
Activity [16]: 29.3%
inhibition in vivo at 5 mg/kg [17]: 81.6%
Activity [18]: Active
Activity [19]: Active
Activity [20]: Active
IC50 [21]: 90 nM
viability at 0.02 µM [22]: 91.9%
Activity [23]: Active
Activity [24]: Active
Activity [25]: 6%
inhibition [26]: Dose-Dependent Effect
Activity [27]: 3.2%
Activity [28]: 3.7%
Activity [29]: 5.4%
Activity [30]: Active
Activity [31]: Active
Activity [32]: Non-Toxic
Activity [33]: 1.6%
Activity [34]: 8.5%
viability at 0.08 µM [35]: 46.4%
Activity [36]: 20.6%
Activity [37]: 24.9%

Source: ChEMBL document CHEMBL4813917, “2-((1-Phenyl-1H-1,2,3-triazol-4-yl)methyl)-2-azabicyclo[3.2.1]octan-3-one derivatives: Simplification and modification of aconitine scaffold for the discovery of novel anticancer agents” (Eur J Med Chem, 2021)
